Counter-ions that a name gives are not always drawn. Like-named read-outs stand apart in the source and are kept apart here. Some results are limits rather than exact numbers.

The target in data set [1] is T1, human MCH1 receptor (Homo sapiens, UniProt Q99705). The experiment in a line: Intracellular calcium response to MCH in COS-7 cells transfected with MCH1 (fluo-3, FLIPR): antagonist potency. The class given is cell-based. Further details: expressed in transfected cells; host or cells: COS-7. To be noted: read-out: Kb (nM) hMCH1. The source says: MCH1 antagonist compounds were identified by their ability to inhibit the MCH-elicited response. […]. From the IC50 values, the antagonist potency (Kb)was derived using the Cheng-Prussof correction (Lazareno and Birdsall, 1993). […]
(In general: A change in cytosolic calcium serves as a functional read-out for many receptors and channels.)

The next data set concerns the target T2, human GALR1 receptor (Homo sapiens, UniProt P47211).
T2 construct: expressed in transfected cells
T2 sequence (P47211 1-349): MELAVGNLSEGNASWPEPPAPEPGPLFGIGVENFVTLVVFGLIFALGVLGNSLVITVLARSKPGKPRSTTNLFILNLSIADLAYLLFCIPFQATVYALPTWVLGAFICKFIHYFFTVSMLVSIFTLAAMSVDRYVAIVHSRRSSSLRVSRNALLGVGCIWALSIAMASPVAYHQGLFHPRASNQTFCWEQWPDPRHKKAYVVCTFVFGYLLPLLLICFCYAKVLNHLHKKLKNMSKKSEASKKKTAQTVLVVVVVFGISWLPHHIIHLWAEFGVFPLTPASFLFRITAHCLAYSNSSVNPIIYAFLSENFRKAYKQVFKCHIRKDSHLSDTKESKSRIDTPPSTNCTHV
The experiment in a line: Binding affinity at the human GALR1 receptor. To be noted: read-out: hGALR1 Ki. An excerpt: (§1) The design of such compounds can be optimized by determining their binding affinity at the recombinant MCH1, NPY1, NPY2, Gal1, Gal2, Gal3, and 5HT2C receptors. The methods to obtain the cDNA of the receptor, express said receptors in heterologous systems, and carry out assays to determine binding affinity are described in the following publications: human NPY1 (Larhammar et al., 1992), human NPY5 (U.S. Pat. No. 5,602,024, the disclosure of which is hereby incorporated by reference in its entirety into this application), human Gall (Habert-Ortoli et al., 1994), human Gal2 (Smith et al., 1997), human Gal3 (Smith et al., 1998), and rat 5HT2C (Julius et al., 1988). Additionally, the compounds would optimally not bind at the following receptors due to possible side effects: human H1 histamine and human H2 histamine receptors; human alpha-1A adrenergic, human alpha-1D adrenergic, human alpha-2A adrenergic, human alpha-2B adrenergic, and human alpha-2C adrenergic receptors; human dopamine D1, D2, D3, D4, and D5 receptors; the β-adrenoceptor; and the human 5HT1A, human 5HT1B, human 5HT1D, human 5HT1E, human 5HT1F, human 5HT2A, rat 5HT2C, human 5HT4, human 5HT6, and human 5HT7 receptors.

A further data set concerns the target T3, human GALR2 receptor (Homo sapiens, UniProt O43603).
T3 construct: expressed in transfected cells
T3 sequence (O43603 1-387): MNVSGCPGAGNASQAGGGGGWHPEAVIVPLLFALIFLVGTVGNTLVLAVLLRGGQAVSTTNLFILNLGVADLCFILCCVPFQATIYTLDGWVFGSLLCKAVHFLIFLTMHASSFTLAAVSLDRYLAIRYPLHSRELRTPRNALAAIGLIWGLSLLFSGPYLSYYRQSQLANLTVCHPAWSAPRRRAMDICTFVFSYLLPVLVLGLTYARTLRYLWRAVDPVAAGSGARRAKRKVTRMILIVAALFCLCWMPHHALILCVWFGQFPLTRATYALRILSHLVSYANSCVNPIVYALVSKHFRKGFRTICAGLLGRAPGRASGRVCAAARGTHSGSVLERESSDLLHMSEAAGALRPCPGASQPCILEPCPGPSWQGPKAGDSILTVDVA
Description: Binding affinity at the human GALR2 receptor. To be noted: read-out: hGALR2 Ki.
Source text: as §1

The next data set addresses T4, human GALR3 receptor (Homo sapiens, UniProt O60755).
T4 construct: expressed in transfected cells
T4 sequence (O60755 1-368): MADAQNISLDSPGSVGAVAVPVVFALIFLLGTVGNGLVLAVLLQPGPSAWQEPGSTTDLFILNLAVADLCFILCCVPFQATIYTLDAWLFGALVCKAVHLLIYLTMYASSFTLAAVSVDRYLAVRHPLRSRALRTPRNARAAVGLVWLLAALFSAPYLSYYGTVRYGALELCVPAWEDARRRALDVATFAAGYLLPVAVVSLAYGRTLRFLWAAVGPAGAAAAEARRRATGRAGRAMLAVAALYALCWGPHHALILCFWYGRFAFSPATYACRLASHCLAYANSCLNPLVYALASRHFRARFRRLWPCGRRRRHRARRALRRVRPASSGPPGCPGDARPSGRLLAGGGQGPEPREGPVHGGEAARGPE
The experiment in a line: Binding affinity at the human GALR3 receptor. To be noted: read-out: hGALR3 Ki.
Source text: as §1

The target of data set [2] is T1, human MCH1 receptor. Description: Competition binding, membrane preparations of A293 cells expressing the human MCH1 receptor, [3H] Compound 10 as radioligand. Further details: expressed in transfected cells. To be noted: Table 3b; A293 cell membranes, [3H] Compound 10; read-out: hMCH1* Ki. On the procedure:
TRITIATED METHYL (4S)-3-{[(3-{4-[3-(ACETYLAMINO)PHENYL]-1-[…]}PROPYL)AMINO]CARBONYL}-4-(3,4-DIFLUOROPHENYL)-6-(METHOXYMETHYL)-2-OXO-1,2,3,4-TETRAHYDRO-5-PYRIMIDINECARBOXYLATE ([^3H] COMPOUND 10): This radiochemical synthesis was carried out by Amersham Pharmacia Biotech, Cardiff, Wales. A methanolic solution of methyl (4S)-3-({[3-(4-[3-(acetylamino)phenyl]-3,6-dihydro-1(2H)pyridinyl)propyl]amino}carbonyl)-4-(3,4-difluorophenyl)-6-(methoxymethyl)-2-oxo-1,2,3,4-tetrahydro-5-pyrimidinecarboxylate was exposed to tritium gas at 1 atmosphere pressure in the presence of 5% palladium on carbon with stirring overnight to give the tritiated methyl (4S)-3-{[(3-{4-[3-(acetylamino)phenyl]-1-piperidinyl}propyl)amino]carbonyl}-4-(3,4-difluorophenyl)-6-(methoxymethyl)-2-oxo-1,2,3,4-tetrahydro-5-pyrimidinecarboxylate ((+)-isomer) After purification by reverse phase HPLC (Hypersil ODS, 4.6×100 mm, methanol:H2O:Et3N 10:90:1 to 100:0:1 in 15 min at 1.0 mL/min, with radiochemical and UV detection), this product was used as a radioligand in the MCH1 binding assays. The same procedure was carried out with H2 gas in place of ^3H2 to afford the non-radioactive version of Compound 10.

A further data set addresses T5, rat 5HT2C receptor (Rattus norvegicus, UniProt P08909).
T5 construct: expressed in transfected cells
T5 sequence (P08909 33-460): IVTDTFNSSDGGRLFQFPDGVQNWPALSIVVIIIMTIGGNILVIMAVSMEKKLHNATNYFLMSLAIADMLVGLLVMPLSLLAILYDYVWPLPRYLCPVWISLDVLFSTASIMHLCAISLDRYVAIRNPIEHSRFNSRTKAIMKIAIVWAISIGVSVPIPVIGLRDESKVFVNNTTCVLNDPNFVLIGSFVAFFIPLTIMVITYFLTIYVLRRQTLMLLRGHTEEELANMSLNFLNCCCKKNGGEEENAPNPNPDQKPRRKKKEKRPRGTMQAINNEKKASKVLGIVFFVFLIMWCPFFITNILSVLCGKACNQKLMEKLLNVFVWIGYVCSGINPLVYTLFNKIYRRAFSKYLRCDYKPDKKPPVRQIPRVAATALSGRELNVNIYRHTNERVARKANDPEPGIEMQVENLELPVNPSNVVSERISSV
Description: Binding affinity at the rat 5HT2C receptor. To be noted: read-out: r5HT2C Ki.
Source text: as §1
Other 5HT Receptors: Other serotonin receptor binding assays were performed according to published methods: rat 5HT2C receptor (Julius et al., 1988); and 5HT6 (Monsma, et al., 1993). The binding assays using the 5HT4 receptor were performed according to the procedures described in U.S. Pat. No. 5,766,879, the disclosure of which is hereby incorporated by reference in its entirety into this application.

T1 sequence (Q99705 whole entry): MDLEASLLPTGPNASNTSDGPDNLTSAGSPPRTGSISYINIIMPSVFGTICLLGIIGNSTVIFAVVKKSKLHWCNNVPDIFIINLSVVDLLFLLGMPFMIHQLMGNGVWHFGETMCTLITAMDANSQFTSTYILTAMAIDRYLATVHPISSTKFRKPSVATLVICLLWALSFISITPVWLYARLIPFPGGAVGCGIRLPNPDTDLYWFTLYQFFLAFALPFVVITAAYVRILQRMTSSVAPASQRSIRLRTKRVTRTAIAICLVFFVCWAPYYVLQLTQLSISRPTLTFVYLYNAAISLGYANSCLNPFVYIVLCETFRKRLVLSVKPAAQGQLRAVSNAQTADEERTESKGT

For the compound `COC(=O)C1=C(C)NC(=O)N(C(=O)NCCCN2CCC3(CCc4ccccc43)CC2)C1c1ccc(F)c(F)c1` (centres unmarked) [Example 32], the melting point (as a rule, the temperature, or range, at which the solid turns liquid) was in the range of 150 to 153 °C.

In turn, `COCC1=C(C(=O)OC)C(c2ccc(F)c(F)c2)N(C(=O)NCCCN2CCC(OC(C)=O)(c3ccccc3)CC2)C(=O)N1` (centres unmarked) (as salt: hydrochloride) [Example 3, (1)-1,2,3,6-TETRAHYDRO-1-{N-[3-(4-O-ACETYL)-4-PHENYLPIPERIDIN-1-YL]PROPYL}CARBOXAMIDO-5-METHOXYCARBONYL-4-METHOXYMETHYL-6-(3,4-DIFLUOROPHENYL)-2-OXOPYRIMIDINE] returned a melting point of 82 to 84 °C.

Regarding `COC(=O)C1=C(C)NC(=O)N(C(=O)NCCCN2CCC3(CCc4ccccc43)CC2)C1c1ccc2nonc2c1` (racemic) (as salt: hydrochloride) [Example 21], the melting point was in the range of 155 to 157 °C.

Take `O=C(NC1CCN(CCC2CCc3ccccc3C2=O)CC1)c1ccccc1` (centres unmarked) [Example 5]: the melting point was 158 to 159 °C.

As to `COCC1=C(C(=O)OC)C(c2ccc(F)c(F)c2)N(C(=O)NCCCN2CCC(c3ccccn3)CC2)C(=O)N1` (single isomer, unassigned; (+)) [Example 17, (+)-6-(3,4-DIFLUOROPHENYL)-1-{N-[4-(2-PYRIDYL)PIPERIDIN-1-YL]-PROPYL}CARBOXAMIDO-5-METHOXYCARBONYL-4-METHOXYMETHYL-2-OXO-1,2,3,6-TETRAHYDROPYRIMIDINE DIHYDROCHLORIDE], the Kb (in general, the affinity of an antagonist, worked out from how it opposes an agonist) at human MCH1 receptor [1] came out at 373 nM.

As for `CC(=O)C1=C(C)NC(=O)N(C(=O)NCCCN2CCC(c3ccc(F)cc3)CC2)C1c1cc(F)c(F)c(F)c1` (single isomer, unassigned; (+)) [Example 12, (+)-1,2,3,6-TETRA HYDRO-1-{N-[4-(4-FLUOROPHENYL)-PIPERIDINE-1-YL]-PROPYL]CARBOXAMIDO-5-ACETYL-2-OXO-6-(3,4,5-TRI FLUORO PHENYL)-4-METHYL PYRIMIDINE HYDROCHLORIDE], the Kb on human MCH1 receptor [1] is 29 nM.

`COC(=O)C1=C(C)NC(=O)N(C(=O)NCCCN2CCN(c3ccccc3[N+](=O)[O-])C[C@@H]2C)C1c1ccc(F)c(F)c1` (single isomer, unassigned; (+)) (as salt: HCl) [Example 34]: the melting point lay within 150 to 153 °C.

Consider `COCC1=C(C(=O)OC)C(c2ccc(F)c(F)c2)N(C(=O)NCCCN2CCC(c3cc(F)c(F)c(F)c3)CC2)C(=O)N1` (single isomer, unassigned; (+)) [Example 33, (+)-1,2,3,6-TETRAHYDRO-1-{N-[4-(3,4,5-TRIFLUORO)-PHENYL-PIPERIDIN-1-YL]PROPYL}CARBOXAMIDO-4-METHOXYMETHYL-6-(3,4-DIFLUOROPHENYL)-2-OXOPYRIMIDINE-5-CARBOXYLIC ACID METHYL ESTER], for which the antagonist equilibrium constant (Kb) on human MCH1 receptor [1] came to 12 nM.

Turning to `COC(=O)C1=C(C)NC(=O)N(C(=O)NCCCN2CCC3(CC2)C(=O)CCc2ccccc23)C1c1ccc2nonc2c1` (centres unmarked) [Example 23, HYDROCHLORIDE], the Kb on human MCH1 receptor [1] was determined as 68 nM.

As to `CCn1c(=O)n(C2CCN(CCCNC(=O)N3C(=O)NC(C)=C(C(=O)OC)C3c3ccc(F)c(F)c3)CC2)c2ccccc21` (single isomer, unassigned; (+)) [Example 7, (+)-1,2,3,6-TETRAHYDRO-1-{N-[4-(N′-ETHYL)-N-BENZIMIDAZOLYL-PIPERIDIN-1YL]PROPYL}CARBOXAMIDO-4-METHYL-6-(3,4-DIFLUOROPHENYL)-2-OXOPYRIMIDINE HYDROCHLORIDE], the antagonist equilibrium constant (Kb) on human MCH1 receptor [1] was 41 nM.

With `COCC1=C(C(=O)OC)C(c2ccc(F)c(F)c2)N(C(=O)NCCCN2CC=C(c3cccc(NC(C)=O)c3)CC2)C(=O)N1` (centres unmarked) [Example 2, METHYL 3-[(3-4-[3-(ACETYLAMINO)PHENYL]-1,2,3,6-TETRAHYDRO-1-PYR-IDINYLPROPYL)AMINO]CARBONYL-4-(3,4-DIFLUOROPHENYL)-6-(METHOXY-METHYL)-2-OXO-1,2,3,4-TETRAHYDRO-5-PYRIMIDINECARBOXYLATE], the Ki at human GALR1 receptor (Table 3a), at human GALR1 receptor (Table 3b), at human GALR2 receptor (Table 3a), at human GALR2 receptor (Table 3b), at human GALR3 receptor (Table 3a) and at human GALR3 receptor (Table 3b) was more than 50 µM throughout. Moreover, the inhibition constant Ki (commonly a dissociation constant, usually derived from enzyme kinetics or from competition with a known ligand) worked out at 49 nM at human MCH1 receptor [2], 39.8 µM on rat 5HT2C receptor (Table 3a) and 39.8 µM at rat 5HT2C receptor (Table 3b).

Consider `CCC1=C(C(N)=O)C(c2ccc(F)c(F)c2)N(C(=O)NCCCN2CCC3(CC2)OCc2ccccc23)C(=O)N1` (single isomer, unassigned; (+)) [Example 22, (+)-1,2,3,6-TETRAHYDRO-1-{N-[4-(BENZO-4′,5′(H)FURAN)PIPERIDIN-1-YL]PROPYL}CARBOXAMIDO-4-ETHYL-6-(3,4-DIFLUOROPHENYL)-2-OXO-PYRIMIDINE-5-CARBOXAMIDE HYDROCHLORIDE], for which the Kb on human MCH1 receptor [1] was 40 nM.

For the origin of these results see patent publication US20040038855A1 (priority 1999, published 2004).
